Values joined by “and” are separate entries in the source; they are usually repeats but may differ in a detail not shown here. Equal entries are not always repeated. Where two headings read alike, the source gives them in different places.
Tests used:
[1] = VSMC viability (MTS) in CPP2-supplemented medium; format: cell-based, human; details: human, primary human VSMCs, read-out: VSMC viability (MTS), % of medium control
Protocol: (§1) Macrophage accumulation and inflammation coincide with the initial phase of calcification. To this end, VSMCs and THP-1-derived macrophages were exposed to CPP2-supplemented medium. CPP2 prepared from human serum as described previously[61] (Supplementary Figs. 6 and 7), induced a pronounced VSMC monolayer calcification after 48 h, which was decreased by (OEG2)2-IP4 in a dose-dependent fashion, and the effect became significant at 10 µM (Fig. 3e). […] Both H2O2 (proxy for oxidative stress) and tumor necrosis factor-alpha (TNF-α) (proxy for inflammatory response) levels were assayed in the VSMC culture supernatants subsequent to CPP2 treatment with and without compounds[30]. However, no increase in H2O2 nor TNF-α compared to control could be detected in either assay. For the CPP-induced VSMC calcification assay (Fig. 3e) a roughly 10-fold higher concentration of (OEG2)2-IP4 was necessary to achieve similar activity as in the CaP-induced VSMC calcification assay (Fig. 3b). […] In the CaP assay, low inhibitor concentration may be sufficient to inhibit crystal nucleation, whereas for the CPP assay higher inhibitor concentrations may be needed to achieve sufficient particle stabilization by chemisorption of inhibitor onto CPPs. Similar results have been reported for hydrogen sulfide in the context of VC[62],[64]. […] An increase in the TNFα levels in the cell culture supernatants was not observed for (OEG2)2-IP4 with (Fig. 3h) and without (Supplementary Fig. 10) combined CPP2 treatment.
(§2) Cell viability was assessed using the MTS assay (CellTiter 96® Aqueous One Solution Cell Proliferation Assay, G3580; Promega, Madison, WI, USA) according to the manufacturer’s instructions. Assays using combined treatment of CPPs or CaP and test compounds were performed in 24-well plates using 20,000 cells per well and assays using test compounds only were performed in a 96-well plate format with a seeding density of 10,000 (VSMC) or 50,000 (THP-1) cells per well, respectively. For controls, cells were treated with respective complete medium only and results were calculated as % of control.

[2] = test system: primary human VSMCs; test: VSMC viability (MTS) in CPP2-supplemented medium; format: cell-based
Protocol: as §1, §2

[3] = test system: primary human VSMCs; test: CPP1-induced VSMC calcium deposition; format: cell-based; details: CPP1 50 µg Ca/mL
Protocol: Calcium deposition on cell monolayers was assessed qualitatively by staining for calcium with 2% w/v Alizarin Red S aqueous solution (pH 4.2) (05600, Fluka Analytical). Cell monolayers in 24-well plates were washed with PBS (10010015, Thermo Fischer), fixed in 10% v/v NBF in PBS (F8775, Sigma-Aldrich) for 45 min at RT, washed with milli-Q water, incubated for 3 min with 300 µL Alizarin Red S solution, washed with milli-Q, and images were acquired using a Axiovert 35 microscope (Zeiss, Carl Zeiss Microscopy GmbH, Jena, Germany) at ×100 magnification. Calcium quantitation was performed after washing cells with PBS and then decalcifying cell monolayers with 0.1 M HCl overnight at 4 °C. Acidic supernatants were centrifuged (10,000 × g, 4 °C, 10 min) and calcium content was assessed using the calcium colorimetric assay.

[4] = PK in healthy rats, s.c.; format: in vivo, male Sprague-Dawley rats; details: for plasma concentration: unit not given
[5] = Serum calcification propensity assay after 4.5 h incubation in enzymatically active human serum; details: Fig. 2e
[6] = test system: transformation of CPP1 to CPP2 in pooled human serum; test: In vitro serum calcification propensity (T50) screening assay; format: biochemical; design: key to T50: T50 in minutes (time to 50% CPP phase transition); details: for T50: individual experiments, Fig. 2a
[7] = 1 µM with CPP2, replicates Fig. 3f
[8] = male, Sprague-Dawley, rat, plasma, sc, 100 mg/kg s.c.

Structure (SMILES): O=P(O)(O)O[C@H]1[C@H](OP(=O)(O)O)[C@@H](OP(=O)(O)O)[C@H](OP(=O)(O)O)[C@@H](OP(=O)(O)O)[C@H]1OP(=O)(O)O [IP6, myo-Inositol hexakisphosphate]
- viability at 48 h, 1 µM [1, 7]: 100%
- viability at 48 h, 3 µM ([1]; 3 µM with CPP2): 106%
- viability at 48 h, 10 µM ([1]; 10 µM with CPP2): 109%
- viability at 48 h, 30 µM ([1]; 30 µM with CPP2): 94.2%
- VSMC viability (MTS), % of medium control [2, 7]: 94.0938% and 110.013%
- VSMC viability (MTS), % of medium control ([2]; 3 µM with CPP2): 97.0633% and 115.505%
- VSMC viability (MTS), % of medium control ([2]; 10 µM with CPP2): 97.8153% and 108.364%
- VSMC viability (MTS), % of medium control ([2]; 30 µM with CPP2): 106.197% and 112.672%
- VSMC viability (MTS), % of medium control ([2]; 100 µM with CPP2): 103.122% and 102.613% and 123.477%
- VSMC calcium deposition (CPP2 = 100) ([3]; 3 µM): 82.15% and 53.35% and 45.33%
- VSMC calcium deposition (CPP2 = 100) ([3]; 100 µM): 138.44% and 188.13% and 99%
- plasma concentrations (below lower limit of quantification) ([4]; 10 mg/kg s.c.): < 772 nM
- Cmax ([4]; 10 mg/kg s.c., LLOQ = 772 nM): < LLOQ
- plasma concentration ([4]; 100 mg/kg s.c., 5 min): 20.1 and 17.5 and 23.6
- plasma concentration ([4]; 100 mg/kg s.c., 0.5 h): 13.6 and 19.8 and 10.3
- AUC(0-inf) [4, 8]: 22.4 µM·h
- Tmax [4, 8]: 12 min
- half-life [4, 8]: 29 ± 15 min
- AUC(0-t) ([4]; male, Sprague-Dawley, rat, plasma, sc, 100 mg/kg s.c., t = 90 min (Fig. 4d; tlast 360 in Suppl. Table 2)): 19.4 µM·h
- Cmax ([4]; male, Sprague-Dawley, rat, plasma, sc, 100 mg/kg s.c., read-out: Cmax): 33 ± 10 µM
- MRT ([4]; male, Sprague-Dawley, rat, plasma, sc, read-out: mean residence time (MRT) (converted)): 45 min
- ΔT50 after 4.5 h vs 0 h incubation in enzymatically active human serum ([5]; compound at c350 concentration, 37 °C, individual donors): -69 min and -77 min and -76 min and -70 min
- decrease of T50 from baseline after 4.5-h incubation in enzymatically active serum ([5]; mean): 73 min
- T50 ([6]; 3 µM): 234.667 min and 274 min and 233.967 min and 253.933 min and 243.267 min and 241.767 min and 246.2 min and 235.9 min and 228.633 min and 203.267 min and 288.2 min and 222.867 min and 230.267 min and 213.667 min and 216.7 min and 265.633 min and 255.267 min
- T50 ([6]; 4.1 µM): 217.4 min and 239.4 min and 277.7 min and 241.067 min
- T50 ([6]; 5 µM): 249.8 min and 203.1 min and 210 min
- T50 ([6]; 8.2 µM): 256.2 min
- T50 ([6]; 10 µM): 257.5 min and 310.933 min and 271.067 min and 277.3 min and 252.767 min and 292.233 min and 259.167 min and 287.2 min and 285.433 min and 258.3 min and 249.2 min and 255.267 min and 337.4 min and 269.2 min and 241.433 min and 220.9 min and 227.45 min and 265.233 min and 247.333 min and 278 min and 268.867 min
- T50 ([6]; 15 µM): 257.433 min and 252.1 min and 309.067 min and 247.867 min
- T50 ([6]; 20 µM): 287.15 min and 265.7 min and 269.8 min
- T50 ([6]; 30 µM): 345.45 min and 406.133 min and 372.8 min and 351.75 min and 343.7 min and 344.2 min and 259.35 min and 335.5 min and 347.9 min and 378.6 min and 321.233 min and 338 min and 297.667 min and 289.1 min and 328.133 min and 313.633 min and 374.867 min and 311.7 min and 330.9 min and 290.033 min and 322.15 min and 364.5 min and 339.867 min
- T50 ([6]; 50 µM): 415 min and 521.55 min and 441.5 min and 442 min and 442.167 min and 430.55 min and 469.15 min and 469.7 min and 444.5 min and 341.15 min and 548.25 min and 437.6 min and 408.433 min and 339.067 min and 334.933 min and 396.5 min and 364.133 min and 373.7 min and 353.2 min and 360.8 min and 372.45 min and 446.2 min and 371.033 min and 410.7 min
- activity/unit mass ([6]; mean c350 x mw (Na salt)): 30.85 mg/L
- concentration upon which a T50 of 350 min is reached (c350), mean ([6]; mean of n experiments): 35.0 µM

Source: paper PMC7002685, “Inhibition of vascular calcification by inositol phosphates derivatized with ethylene glycol oligomers” (Nature Communications, 2020)
